Laboratory results published in patent US20140323504A1, “Pyrazolo[4,3-c]Pyridine Derivatives As Kinase Inhibitors” (Cellzome Limited, priority 2011, published 2014).
Where two headings read alike, the source gives them in different places.

Assays:
BTK [1] = biological target: T1, BTK (Homo sapiens, UniProt Q06187); experiment: Kinobeads assay with quantitative mass spectrometry, BTK; type: binding; conditions: Jurkat/Ramos lysate, read-out: BTK inhibition value (IC50)
T1 construct: purchased ProQinase GmbH, Freiburg, Germany
T1 sequence (Q06187 whole entry): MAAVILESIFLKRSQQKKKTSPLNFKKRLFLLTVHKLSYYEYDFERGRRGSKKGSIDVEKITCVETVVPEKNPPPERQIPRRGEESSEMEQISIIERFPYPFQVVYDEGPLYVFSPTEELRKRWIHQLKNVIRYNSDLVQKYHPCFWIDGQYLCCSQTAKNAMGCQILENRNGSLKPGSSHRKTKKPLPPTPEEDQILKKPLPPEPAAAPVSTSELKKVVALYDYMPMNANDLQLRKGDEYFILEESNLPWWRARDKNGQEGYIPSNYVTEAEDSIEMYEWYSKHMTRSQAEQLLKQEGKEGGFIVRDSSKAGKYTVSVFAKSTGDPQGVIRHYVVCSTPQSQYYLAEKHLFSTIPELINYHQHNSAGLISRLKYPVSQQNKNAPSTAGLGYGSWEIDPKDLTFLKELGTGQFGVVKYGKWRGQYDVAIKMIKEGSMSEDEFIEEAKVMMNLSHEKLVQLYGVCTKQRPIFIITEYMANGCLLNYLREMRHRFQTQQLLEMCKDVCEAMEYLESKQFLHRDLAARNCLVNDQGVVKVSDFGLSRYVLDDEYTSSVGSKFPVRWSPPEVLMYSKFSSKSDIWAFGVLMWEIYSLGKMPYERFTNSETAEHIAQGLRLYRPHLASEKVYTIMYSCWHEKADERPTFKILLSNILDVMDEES
Experimental: (§1) Selected compounds of the present invention as described in the previous examples were tested in a Kinobeads™ assay as described (WO-A 2006/134056; Bantscheff et al., 2007. Nature Bioteclmol. 25, 1035-1044).
(§2) Compounds were incubated with cell lysate aliquots (1:1 mix of Jurkat and Ramos cell lysates) for 45 minutes at 4° C. and allowed to bind to the proteins in the lysate sample. Then the Kinobeads™ affinity matrix was added to capture proteins that were not interacting with the previously added compound. After this two hour incubation step at 4° C. beads were separated from the lysate and bead bound proteins were eluted in SDS sample buffer and subsequently separated by SDS-Polyacrylamide gel electrophoresis. The gel was stained with colloidal Coomassie and stained areas of each gel lane were cut out and subjected to in-gel proteolytic digestion with trypsin. Peptides originating from the different gel areas were labeled with isobaric tagging reagents (TMT reagents, Thermofisher) as shown in Table 7. The TMT reagents are a set of multiplexed, amine-specific, stable isotope reagents that can label peptides in up to six different biological samples enabling simultaneous identification and quantitation of peptides. The combined samples were fractionated using reversed-phase chromatography at pH 11 and fractions were subsequently analyzed with a nano-flow liquid chromatography system coupled online to a tandem mass spectrometer (LC-MSMS) experiment followed by reporter ion quantification in the MSMS spectra (Ross et al., 2004. Mol. Cell. Proteomics 3(12):1154-1169; Dayon et al., 2008. Anal. Chem. 80(8):2921-2931; Thompson et al., 2003. Anal. Chem. 75(8):1895-1904). Further experimental protocols can be found in WO2006/134056 and previous publications (Bantscheff et al., 2007. Nat. Biotechnol. 25, 1035-1044; Bantscheff et al., 2011. Nat. Biotechnol. 29(3):255-265).

BLK = biological target: T2, BLK (Homo sapiens, UniProt P51451); experiment: Kinobeads assay with quantitative mass spectrometry, BLK; type: binding; conditions: Jurkat/Ramos lysate, read-out: BLK inhibition value (IC50)
T2 construct: endogenous in cells; host or cells: 1:1 mix of Jurkat and Ramos cell lysates
T2 sequence (P51451 whole entry): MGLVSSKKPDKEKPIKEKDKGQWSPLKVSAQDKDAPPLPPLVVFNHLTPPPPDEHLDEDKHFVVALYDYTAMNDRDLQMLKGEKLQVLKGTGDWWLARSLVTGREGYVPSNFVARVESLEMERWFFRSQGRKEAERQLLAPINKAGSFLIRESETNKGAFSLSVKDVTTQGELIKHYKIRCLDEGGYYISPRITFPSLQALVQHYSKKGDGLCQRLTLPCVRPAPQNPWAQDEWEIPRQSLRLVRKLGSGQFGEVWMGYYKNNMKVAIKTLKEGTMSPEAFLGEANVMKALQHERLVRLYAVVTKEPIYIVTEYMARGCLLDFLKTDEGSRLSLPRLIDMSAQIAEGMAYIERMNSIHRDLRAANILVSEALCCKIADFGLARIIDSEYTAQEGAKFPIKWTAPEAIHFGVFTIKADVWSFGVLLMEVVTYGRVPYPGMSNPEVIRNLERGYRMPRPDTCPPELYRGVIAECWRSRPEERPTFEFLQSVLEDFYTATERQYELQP
Experimental: as §1, §2

ITK = biological target: T3, ITK (Homo sapiens, UniProt Q08881); experiment: Kinobeads assay with quantitative mass spectrometry, ITK; type: binding; conditions: Jurkat/Ramos lysate, read-out: ITK inhibition value (IC50)
T3 construct: purchased ProQinase GmbH, Freiburg, Germany
T3 sequence (Q08881 1-620): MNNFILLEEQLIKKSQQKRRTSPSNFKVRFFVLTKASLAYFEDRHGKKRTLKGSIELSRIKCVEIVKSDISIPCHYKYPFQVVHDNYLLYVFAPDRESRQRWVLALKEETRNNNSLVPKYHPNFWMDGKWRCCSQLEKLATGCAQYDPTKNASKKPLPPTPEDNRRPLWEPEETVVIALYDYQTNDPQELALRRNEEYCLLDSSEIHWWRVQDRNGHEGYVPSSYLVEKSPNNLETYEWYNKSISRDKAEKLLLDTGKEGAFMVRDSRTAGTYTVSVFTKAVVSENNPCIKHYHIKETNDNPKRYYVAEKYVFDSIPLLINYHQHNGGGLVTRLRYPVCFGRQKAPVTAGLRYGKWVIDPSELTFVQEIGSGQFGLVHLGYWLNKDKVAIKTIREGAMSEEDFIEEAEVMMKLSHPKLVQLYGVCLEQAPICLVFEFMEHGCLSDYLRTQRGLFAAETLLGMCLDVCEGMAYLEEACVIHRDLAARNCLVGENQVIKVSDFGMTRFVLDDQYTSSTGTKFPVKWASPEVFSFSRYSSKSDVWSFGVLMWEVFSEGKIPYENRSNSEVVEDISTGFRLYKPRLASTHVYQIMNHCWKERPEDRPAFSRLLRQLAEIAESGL
Experimental: as §1, §2

BTK [2] = biological target: T1, BTK; experiment: Radiometric protein kinase assay (33PanQinase, ProQinase), BTK; type: biochemical; conditions: read-out: BTK enzyme assay IC50
Experimental: A radiometric protein kinase assay (^33PanQinase® Activity Assay; ProQinase GmbH, Freiburg, Germany) was used for measuring the kinase activity of the protein kinases BLK, BTK, ITK and JAK3. All kinase assays were performed in 96-well FlashPlates™ from PerkinElmer (Boston, Mass., USA) in a 50 μl reaction volume. The reaction cocktail was pipetted in four steps in the following order: • 20 μl of assay buffer (standard buffer) • 5 μl of ATP solution (in H2O) • 5 μl of test compound (in 10% DMSO) • 10 μl of substrate/10 μl of enzyme solution (premixed)
The reaction cocktails were incubated at 30° C. for 60 minutes. The reaction was stopped with 50 μl of 2% (v/v) H3PO4, plates were aspirated and washed two times with 200 μl 0.9% (w/v) NaCl. Incorporation of ^33Pi was determined with a microplate scintillation counter (Microbeta, Wallac). All assays were performed with a BeckmanCoulter/SAGIAN™ Core System.

[3] = system: STAT5 phosphorylation in IL-2 stimulated YT cells; experiment: Cell assay with washout of compounds (pSTAT5, YT cells, MSD); type: cell-based, human; conditions: for IC50: Homo sapiens; for retention of activity after washing: up to 4 hours after washing
Experimental: This time course experiment allows determination as to whether the pharmacological effect of the tested compounds persists over time even after the compound is removed from the cell samples.
Human YT cells were grown as described above. Cells were harvested by centrifugation and resuspended in RPMI0.5% heat-inactivated FBS. 3×10^5 cells were seeded in 60 μl per well in a round-bottomed 96 well plate (BD-Falcon, 353077).
Test compounds were dissolved in DMSO and a 1:3 dilution series (9 steps) was prepared. To generate a dose response curve, 30 μl of fourfold concentrated compound in 4% DMSO/RPMI/0.5% FBS were added to each cell sample in the 96 well plate resulting in a final DMSO concentration of 1% DMSO. Cells were incubated for one hour in a humidified incubator (37° C., 5% CO2). After incubation cells were washed twice by centrifugation and replacement of media (RPMI/0.5% FBS), with the exception of the time 0 plate. Washed cells were incubated for 30 min, 1, 2 and 4 hours in a humidified incubator (37° C., 5% CO2) prior to stimulation with IL-2. To each well 30 μl of a fourfold concentrated IL-2 solution (Recombinant human IL-2, Peprotech 200-02; 120 nM solution in RPMI) was added and incubated for 30 minutes at room temperature. Cells were lysed by adding 30 μl of 5× lysis buffer (MSD lysis buffer) and incubated for 10 minutes at 4° C. with gentle shaking.
The effect of compounds on STATS phosphorylation was determined in lysates using the MSD MULTI-SPOT® 96 4-spot phosphor-STAT5a,b whole cell lysatc kit (MesoScale Discovery, K150IGD-3) according to the manufacturer's protocol. Data were analysed in BioAssay using the nonlinear regression for a sigmoidal dose-response with a variable slope and IC50 values were determined.

[4] = 0.5 h, read-out: pSTAT5 inhibition pIC50, 30 min after washout, IL-2 stimulated YT cells, 30 min after washout (converted)
[5] = 2 h, read-out: pSTAT5 inhibition pIC50, 2 hours after washout, IL-2 stimulated YT cells, 2 hours after washout (converted)
[6] = 4 h, IL-2 stimulated YT cells, 4 hours after washout, read-out: pSTAT5 inhibition pIC50, 4 hours after washout (converted)

SMILES	IC50 (BTK [1]) [nM]	IC50 (BLK) [nM]	IC50 (ITK) [nM]	IC50 (BTK [2]) [nM]	IC50 [3, 4] [nM]	IC50 [3, 5] [nM]	IC50 [3, 6] [nM]	retention of activity after washing ([3]; YT cells)	activity 30 minutes after the washing of cells ([3]; YT cells, 30 minutes after washing)
C=CC(=O)Nc1cccc(Cn2ncc3cnc(Nc4cnn(C)c4)nc32)c1 [Example 1, N-(3-((6-((1-Methyl-1H-pyrazol-4-yl)amino)-1H-pyrazolo[3,4-d]pyrimidin-1-yl)methyl)phenyl)acrylamide]	12	20	86	20	200	63.1	100	retain activity for up to 4 hours after washing with some drop in activity	
C=CC(=O)Nc1cc(Cn2ncc3cnc(Nc4cnn(C)c4)nc32)ccc1F [Example 2, […]]	72	406	818	323					

More lines, main results first:

IC50 (BTK [1]) [nM]	IC50 (BLK) [nM]	IC50 (ITK) [nM]	IC50 (BTK [2]) [nM]	IC50 [3, 4] [nM]	IC50 [3, 5] [nM]	IC50 [3, 6] [nM]	SMILES	retention of activity after washing ([3]; YT cells)	activity 30 minutes after the washing of cells ([3]; YT cells, 30 minutes after washing)
12	12	12	1	631	79.4	126	C#CC(=O)Nc1cccc(Cn2ncc3cnc(Nc4cnn(C)c4)nc32)c1 [Example 3, N-(3-((6-((1-Methyl-1H-pyrazol-4-yl)amino)-1H-pyrazolo[3,4-d]pyrimidin-1-yl)methyl)phenyl)propiolamide]	retain activity for up to 4 hours after washing with some drop in activity	
			2000				CC(=O)Nc1cccc(Cn2ncc3cnc(Nc4cnn(C)c4)nc32)c1 [compound 2, N-(3-((6-((1-methyl-1H-pyrazol-4-yl)amino)-1H-pyrazolo[3,4-d]pyrimidin-1-yl)methyl)phenyl)acetamide, reference compound]		completely lost
			20				C=CS(=O)(=O)Nc1cccc(Cn2ncc3cnc(Nc4cnn(C)c4)nc32)c1 [Example 4, N-(3-((6-((1-Methyl-1H-pyrazol-4-yl)amino)-1H-pyrazolo[3,4-d]pyrimidin-1-yl)methyl)phenyl)ethenesulfonamide]		
